Laboratory results taken from patent US8703785B2, “2-aminopyrimidin-4-one and 2-aminopyridine derivatives both having BACE1-inhibiting activity” (Shionogi & Co., Ltd., priority 2008, dated 2014).
Like-named read-outs stand apart in the source and are kept apart here.

How the values were obtained:
Recombinant human BACE-1 = Recombinant human BACE-1 (Homo sapiens (Human), UniProt P56817); assay: Measurement of BACE1 inhibitory activity; type: biochemical; conditions: Recombinant human BACE-1 7.4 nM, substrate peptide 18 nM, pH 5.0, 3 hours at 30° C.; read-out: IC50 (BACE1 enzyme activity)
Chain of Recombinant human BACE-1 (P56817 46-501): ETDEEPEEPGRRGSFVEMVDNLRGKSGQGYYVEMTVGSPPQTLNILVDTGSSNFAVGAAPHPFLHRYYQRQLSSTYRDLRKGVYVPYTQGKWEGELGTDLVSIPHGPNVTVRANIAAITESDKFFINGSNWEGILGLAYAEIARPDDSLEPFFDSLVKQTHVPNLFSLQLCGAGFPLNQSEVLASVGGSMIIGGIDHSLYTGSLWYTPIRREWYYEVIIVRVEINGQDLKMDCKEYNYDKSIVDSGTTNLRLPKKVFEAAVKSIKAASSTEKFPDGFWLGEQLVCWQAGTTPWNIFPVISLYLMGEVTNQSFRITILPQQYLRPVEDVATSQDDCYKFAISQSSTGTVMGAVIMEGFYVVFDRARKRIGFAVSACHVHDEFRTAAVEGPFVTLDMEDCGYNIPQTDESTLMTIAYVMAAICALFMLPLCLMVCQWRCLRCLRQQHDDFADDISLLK
Description: First, 48.5 μl portions of a solution of substrate peptide (Biotin-XSEVNLDAEFRHDSGC-Eu: X=ε-amino-n-capronic acid, Eu=Europium cryptate) were put into respective wells of a 96-well half area microplate (black microplate, Costar). Then, 0.5 μl of a test compound (DMSO (dimethyl sulfoxide) solution) and 1 μl of Recombinant human BACE-1 (R&D systems) were added to each of the wells, and they were reacted for 3 hours at 30° C. […] The final concentration of the substrate peptide was set to 18 nM, and the final concentration of Recombinant human BACE-1 was set to 7.4 nM. The reaction buffer used was a sodium acetate buffer (50 mM sodium acetate, pH 5.0, 0.008% Triton X-100). After the reaction finished, 50 μl portions of a 8.0 μg/ml solution of Streptavidin-XL665 (CIS bio international) in a phosphate buffer (150 mM K2HPO4—KH2PO4, pH 7.0, 0.008% Triton X-100, 0.8 M KF) were added to the respective wells, and the plate was left standing for 1 hour at 30° C. Thereafter, the fluorescence intensity (excitation wavelength: 320 nm, measurement wavelength: 620 nm and 665 nm) was measured with a Wallac 1420 multilabel counter (Perkin Elmer life sciences). The enzyme activity was determined from the count rate at each measurement wavelength (10000× Count 665/Count 620), and the amount needed to inhibit the enzyme activity by 50% (IC50) was calculated.

[1] = system: Neuroblastoma SH-SY5Y cells (SH/APPwt) with human wild-type β-APP excessively expressed; assay: Measurement of β-amyloid (Aβ) production inhibitory effect in cell; type: cell-based; conditions: 24 hours incubation, Amyloid-β 1-40 HTRF
Description: Neuroblastoma SH-SY5Y cells (SH/APPwt) with human wild-type β-APP excessively expressed therein were prepared at 8×10^5 cells/mL, and 150 μl portions thereof were inoculated into respective wells of a 96-well culture plate (Falcon). The cells were cultured for 2 hours at 37° C. in a 5% gaseous carbon dioxide incubator. […] Namely, the final DMSO concentration was 1%, and the amount of the cell culture was 200 μl. After the incubation was performed for 24 hours from the addition of the test compound, 100 μl of the culture supernatant was collected from each fraction. The amount of the Aβ in each fraction was measured. The Aβ amount was measured as follows. 10 μl of a homogeneous time resolved fluorescence (HTRF) measurement reagent (Amyloid-β 1-40 peptide; IBA Molecular Holding, S.A.) and 10 μl of the culture supernatant were put into a 384-well half area microplate (black microplate, Costar) and mixed with each other, and then left standing overnight at 4° C. while the light was shielded. Then, the fluorescence intensity (excitation wavelength: 337 nm, measurement wavelength: 620 nm and 665 nm) was measured with a Wallac 1420 multilabel counter (Perkin Elmer life sciences).

Metabolic stability test = type: in vitro ADME; conditions: human liver microsomes 0.5 mg protein/mL, NADPH, 30 minutes at 37° C., compound concentration 2 μM
Description: The target compound was reacted with commercially available pooled human liver microsomes for a predetermined time period. The residual rate was calculated by comparing the reacted sample and unreacted sample, and thus the degree of metabolism in liver was evaluated.
In 0.2 mL of a buffer (50 mmol/L tris-HCl pH 7.4, 150 mmol/L potassium chloride, 10 mmol/L magnesium chloride) containing human liver microsomes 0.5 mg protein/mL, reaction was carried out in the presence of 1 mmol/L NADPH for 0 minute or 30 minutes at 37° C. (oxidative reaction). After the reaction, 50 μL of the reaction solution was added to and mixed with 100 μL of a solution of methanol/acetonitrile=1/1 (v/v), and the mixture was centrifuged for 15 minutes at 3000 rpm. The test compound in the centrifuged supernatant was quantified by LC/MS/MS, and the residual amount of the test compound after the reaction was calculated based on the compound amount at 0-minute reaction set as 100%.
(Results) The residual rate at a compound concentration of 2 μM is shown below.

CYP3A4 [2] = biological target: T1, CYP3A4 (Homo sapiens (Human), UniProt P08684); assay: CYP3A4 fluorescent MBI test; type: in vitro ADME; conditions: E. coli-expressing CYP3A4, 7-BFC substrate, pre-reaction 0 or 30 minutes
T1 sequence (P08684 whole entry): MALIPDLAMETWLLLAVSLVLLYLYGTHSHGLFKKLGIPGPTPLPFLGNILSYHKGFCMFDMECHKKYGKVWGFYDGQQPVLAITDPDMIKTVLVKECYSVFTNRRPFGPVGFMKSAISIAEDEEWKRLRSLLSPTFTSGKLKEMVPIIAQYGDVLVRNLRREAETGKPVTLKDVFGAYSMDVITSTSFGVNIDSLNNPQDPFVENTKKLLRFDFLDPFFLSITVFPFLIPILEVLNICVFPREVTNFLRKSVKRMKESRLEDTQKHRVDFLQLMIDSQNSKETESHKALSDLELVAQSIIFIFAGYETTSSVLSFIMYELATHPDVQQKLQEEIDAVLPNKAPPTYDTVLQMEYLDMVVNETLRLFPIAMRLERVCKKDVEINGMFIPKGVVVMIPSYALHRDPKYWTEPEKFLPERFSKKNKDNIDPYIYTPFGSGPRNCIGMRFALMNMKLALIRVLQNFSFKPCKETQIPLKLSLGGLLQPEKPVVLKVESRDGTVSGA
Description: The CYP3A4 fluorescent MBI test is a test to examine enhancement of CYP3A4 inhibition by metabolic reaction of the compound. Here, E. coli-expressing CYP3A4 was used as an enzyme, and a reaction wherein 7-benzyloxy trifluoromethylcumarin (7-BFC) was debenzylated by the CYP3A4 enzyme into a fluorescent metabolite 7-hydroxytrifluoromethylcumarin (HFC) was employed as an indicator reaction. The reaction conditions were as follows.
Substrate: 5.6 μmol/L 7-BFC
Pre-reaction time: 0 or 30 minutes
Reaction time: 15 minutes
Reaction temperature: 25° C. (room temperature)
CYP3A4 content (E. coli-expressing enzyme): 62.5 pmol/mL at pre-reaction, […] at reaction (10-fold diluted) […]
The enzyme and a test compound solution were added to a K-Pi buffer (pH 7.4) in the aforementioned amounts for the pre-reaction so that a pre-reaction solution was prepared, and this solution was put into a 96-well microplate. […] With respect to each of the microplates on which the indicator reaction was performed, the fluorescence value of the metabolite 7-HFC was measured with a fluorescence plate reader (Ex=420 nm, Em=535 nm). […] The remaining activity (%) at each concentration after adding the test compound solution was calculated, and the IC50 value was calculated from the concentration and inhibition percentage by inverse estimation with the logistic model. […]

CYP1A2 = CYP1A2 (Homo sapiens (Human), UniProt P05177); assay: CYP inhibition test (CYP1A2); type: in vitro ADME
Chain of CYP1A2 (P05177 whole entry): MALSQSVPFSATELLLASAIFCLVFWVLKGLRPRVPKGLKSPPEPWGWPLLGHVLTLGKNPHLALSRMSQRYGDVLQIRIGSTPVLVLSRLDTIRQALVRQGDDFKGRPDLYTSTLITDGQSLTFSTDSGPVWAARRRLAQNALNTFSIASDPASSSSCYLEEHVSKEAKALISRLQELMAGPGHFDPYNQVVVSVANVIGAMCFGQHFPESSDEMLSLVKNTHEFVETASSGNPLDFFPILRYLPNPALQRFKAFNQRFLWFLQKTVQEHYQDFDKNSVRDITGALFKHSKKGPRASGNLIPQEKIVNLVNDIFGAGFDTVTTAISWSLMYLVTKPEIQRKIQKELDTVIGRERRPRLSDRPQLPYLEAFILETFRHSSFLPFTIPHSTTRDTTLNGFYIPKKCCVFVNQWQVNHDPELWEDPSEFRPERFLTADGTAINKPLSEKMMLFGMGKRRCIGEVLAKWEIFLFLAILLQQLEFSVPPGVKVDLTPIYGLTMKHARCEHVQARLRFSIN
From the text: (§1) Using commercially available pooled human liver microsomes and employing typical substrate metabolic reactions of 5 major species of human CYP enzymes (CYP1A2, 2C9, 2C19, 2D6, 3A4), namely, O-deethylation of 7-ethoxyresorufin (CYP1A2), methyl-hydroxylation of tolbutamide (CYP2C9), 4′-hydroxylation of mephenyloin (CYP2C19), O-demethylation of dextromethorphan (CYP2D6), and hydroxylation of terfenadine (CYP3A4), as indicator reactions, the degree of inhibition of each metabolite production by each test compound was evaluated.
(§2) The reaction conditions were as follows:
(§3) Substrate: 0.5 μmol/L of ethoxyresorufin (CYP1A2), 100 μmol/L of tolbutamide (CYP2C9), 50 μmol/L of S-mephenyloin (CYP2C19), 5 μmol/L of dextromethorphan (CYP2D6), 1 μmol/L of terfenadine (CYP3A4); […]
(§4) As a reaction solution, the respective five substrates, human liver microsomes, and test compound in the aforementioned amounts were added to a 50 mM Hepes buffer in a 96-well microplate. […] Centrifugation was performed for 15 minutes at 3000 rpm, and each metabolite in the centrifuged supernatant was quantified. Namely, resorufin (CYP1A2 metabolite) was quantified with a fluorescence multilabel counter, and hydroxylated tolbutamide (CYP2C9 metabolite), 4′-hydroxylated mephenyloin (CYP2C19 metabolite), dextrorphan (CYP2D6 metabolite) and alcoholized terfenadine (CYP3A4 metabolite) were quantified with LC/MS/MS. […]

CYP2C9 = CYP2C9 (Homo sapiens (Human), UniProt P11712); assay: CYP inhibition test (CYP2C9); type: in vitro ADME; conditions: pooled human liver microsomes, methyl-hydroxylation of tolbutamide
Chain of CYP2C9 (P11712 whole entry): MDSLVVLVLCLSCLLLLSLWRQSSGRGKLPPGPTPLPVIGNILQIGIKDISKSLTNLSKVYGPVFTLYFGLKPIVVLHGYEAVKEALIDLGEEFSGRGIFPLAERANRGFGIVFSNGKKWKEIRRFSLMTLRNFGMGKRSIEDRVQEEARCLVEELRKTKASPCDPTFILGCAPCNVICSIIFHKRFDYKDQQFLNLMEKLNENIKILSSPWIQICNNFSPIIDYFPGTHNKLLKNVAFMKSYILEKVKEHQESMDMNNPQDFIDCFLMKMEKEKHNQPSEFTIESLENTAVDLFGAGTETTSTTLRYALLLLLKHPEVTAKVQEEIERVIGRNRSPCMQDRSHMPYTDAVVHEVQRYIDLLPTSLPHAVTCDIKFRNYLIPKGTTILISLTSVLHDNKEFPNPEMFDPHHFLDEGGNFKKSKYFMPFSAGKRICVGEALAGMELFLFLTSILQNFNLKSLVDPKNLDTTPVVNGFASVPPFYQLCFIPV
From the text: as §1, §2, §3, §4

CYP3A4 [3] = biological target: T1, CYP3A4; assay: CYP inhibition test (CYP3A4); type: in vitro ADME; conditions: pooled human liver microsomes, hydroxylation of terfenadine
From the text: as §1, §2, §3, §4

CYP2C19 = CYP2C19 (Homo sapiens (Human), UniProt P33261); assay: CYP inhibition test (CYP2C19); type: in vitro ADME; conditions: pooled human liver microsomes, 4′-hydroxylation of mephenyloin
Chain of CYP2C19 (P33261 whole entry): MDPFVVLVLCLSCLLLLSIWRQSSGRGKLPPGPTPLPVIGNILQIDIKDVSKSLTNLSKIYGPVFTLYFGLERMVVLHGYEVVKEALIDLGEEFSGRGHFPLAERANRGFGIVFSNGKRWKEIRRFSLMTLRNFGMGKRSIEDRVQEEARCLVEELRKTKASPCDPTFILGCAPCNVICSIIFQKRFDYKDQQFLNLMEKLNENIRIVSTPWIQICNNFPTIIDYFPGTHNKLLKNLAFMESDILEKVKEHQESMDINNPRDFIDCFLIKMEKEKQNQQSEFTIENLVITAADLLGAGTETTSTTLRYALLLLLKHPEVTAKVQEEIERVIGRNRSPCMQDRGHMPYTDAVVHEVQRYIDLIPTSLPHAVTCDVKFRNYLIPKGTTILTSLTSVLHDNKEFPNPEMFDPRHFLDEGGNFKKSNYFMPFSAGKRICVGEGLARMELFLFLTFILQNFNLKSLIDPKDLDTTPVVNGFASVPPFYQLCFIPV
From the text: as §1, §2, §3, §4

CYP2D6 = CYP2D6 (Homo sapiens (Human), UniProt P10635); assay: CYP inhibition test (CYP2D6); type: in vitro ADME; conditions: pooled human liver microsomes, O-demethylation of dextromethorphan
Chain of CYP2D6 (P10635 whole entry): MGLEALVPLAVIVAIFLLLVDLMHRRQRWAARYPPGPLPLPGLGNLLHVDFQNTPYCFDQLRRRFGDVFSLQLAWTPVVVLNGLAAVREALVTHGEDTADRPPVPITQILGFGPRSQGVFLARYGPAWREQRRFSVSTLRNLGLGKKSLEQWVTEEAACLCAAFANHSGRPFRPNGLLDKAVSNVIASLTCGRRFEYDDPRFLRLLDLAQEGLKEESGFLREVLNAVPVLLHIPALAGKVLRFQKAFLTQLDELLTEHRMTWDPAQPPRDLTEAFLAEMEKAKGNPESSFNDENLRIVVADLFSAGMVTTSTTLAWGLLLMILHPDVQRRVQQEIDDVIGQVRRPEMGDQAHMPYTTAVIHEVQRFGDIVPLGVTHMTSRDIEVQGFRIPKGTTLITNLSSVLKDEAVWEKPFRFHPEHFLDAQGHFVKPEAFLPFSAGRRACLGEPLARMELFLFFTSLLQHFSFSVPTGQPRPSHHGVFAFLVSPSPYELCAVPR
From the text: as §1, §2, §3, §4

Solubility test = type: physicochemical; conditions: artificial intestinal juice (phosphate buffer) with 1% DMSO, fassgf or other biorelevant, kinetic from dmso stock, artificial intestinal juice pH 6.8, 16 hours at 25° C.
Description: The solubility of each compound was determined under 1% DMSO addition conditions. A 10 mM solution of the compound was prepared with DMSO, and 6 μL of the compound solution was added to 594 μL of an artificial intestinal juice (water and 118 mL of 0.2 mol/L NaOH reagent were added to 250 mL of 0.2 mol/L potassium dihydrogen phosphate reagent to reach 1000 mL) with a pH of 6.8. The mixture was left standing for 16 hours at 25° C., and the mixture was vacuum-filtered. The filtrate was two-fold diluted with methanol/water=1/1, and the compound concentration in the filtrate was measured with HPLC or LC/MS/MS by the absolute calibration method.

Row | Compound | IC50 (Recombinant human BACE-1) | IC50 [1] | other results
1 | CN1C(=O)CC(C)(c2cccc(NC(=O)c3cnc(Cl)cn3)c2)N=C1N (stereo not shown) [Compound 34] | 37 nM | 76.2 nM | –
2 | COc1cnc(C(=O)Nc2cccc(C3(C)CC(=O)N(C)C(N)=N3)c2)cn1 (stereo not shown) [Compound 35] | 42 nM | 6.6 nM | residual rate (Metabolic stability test): 99.5%
3 | C#CCOc1cnc(C(=O)Nc2cccc(C3(C)CC(=O)N(C)C(N)=N3)c2)cn1 (stereo not shown) [Compound 43] | 56 nM | 28.6 nM | IC50 difference without vs with pre-reaction (CYP3A4 [2]): ≤ 3 µM
4 | CC#CCOc1cnc(C(=O)Nc2cccc(C3(C)CC(=O)N(C)C(N)=N3)c2)cn1 (stereo not shown) [Compound 44] | 12 nM | 0.7 nM | IC50 (CYP1A2): > 20 µM; IC50 (CYP2C9): > 20 µM; IC50 (CYP3A4 [3]): > 20 µM; IC50 (CYP2C19): > 20 µM; IC50 (CYP2D6): > 20 µM
5 | COc1cnc(C(=O)Nc2cccc(CNc3cccnc3N)c2)cn1 [Compound 473] | 1980 nM | 479 nM | IC50 (CYP1A2; pooled human liver microsomes, O-deethylation of 7-ethoxyresorufin, read-out: IC50 CYP1A2 inhibition): > 20 µM; IC50 (CYP2C9): > 20 µM; IC50 (CYP3A4 [3]): > 20 µM; IC50 (CYP2C19): > 20 µM; IC50 (CYP2D6): > 20 µM; solubility at 16 h (Solubility test): > 50 µM
6 | COCCOc1cnc(C(=O)Nc2cccc(CNc3cccnc3N)c2)cn1 [Compound 478] | 3180 nM | 811 nM | solubility at 16 h (Solubility test): > 50 µM
7 | C#CCOc1cnc(C(=O)Nc2cccc(CNc3cccnc3N)c2)cn1 [Compound 481] | 180 nM | 76.8 nM | –
8 | CC#CCOc1cnc(C(=O)Nc2cccc(CNc3cccnc3N)c2)cn1 [Compound 482] | 73 nM | 43.8 nM | –
9 | C[C@@H](NC(=O)c1cc(C(=O)N[C@@H](Cc2ccccc2)[C@H](O)CNC2CC2)cc(N(C)S(C)(=O)=O)c1)c1ccccc1 [Reference Compound, reference compound] | – | 36.8 nM | –
